Here are results for 38 compounds from ChEMBL document CHEMBL3301361, “Experimental in vitro DMPK and physicochemical data on a set of publicly disclosed compounds”.

Data set [1] in a line: in vitro. The conditions noted are these: human, plasma.
A short description of data set [2]: physchem. The conditions noted are these: octan-1-ol/water.
Data set [3] is described as follows: in vitro. The conditions noted are these: mouse, plasma.
The nature of data set [4]: in vitro. The conditions noted are these: SD, HW or BN, rat, plasma.
Data set [5] is described as follows: in vitro. To be noted: hepatocytes.
The nature of data set [6]: in vitro. To be noted: Beagle, dog, plasma.
A short description of data set [7]: in vitro. To be noted: human, hepatocytes.
A short description of data set [8]: in vitro. The conditions noted are these: human.
Data set [9] can be described thus: physchem.

Each structure is given as a SMILES string.

As to `Cc1ccccc1-n1c(Cn2cnc3c(N)ncnc32)nc2cccc(C)c2c1=O`, the figures for the fraction unbound at 5 h in data set [1], in [3] and in data set [4] were 0.0136, 0.0801 and 0.24, respectively. The compound further yielded a logD in data set [2] (pH 7.4) of 2.6. Moreover, the hepatocyte CLint in data set [5] turned out to be 24 µL/min/1e6 cells.

Consider `CS(=O)(=O)N1CCC(NC(=O)NC23CC4CC(CC(C4)C2)C3)CC1`, for which the fraction unbound at 5 h is 0.289 in [1] (PPB), 0.17 in [3] and 0.262 in [4]. Also, in data set [2] (pH 7.4, LogD7.4), the logD was found to be 2.7.

With `Cc1ncccc1Oc1ncnc(OC2CCN(C(=O)OC(C)C)CC2)c1C`, the fraction unbound at 5 h in [1] (PPB) is 0.0079; in data set [3], 0.0149; in [4], 0.0313. For the same compound, the logD in data set [2] (pH 7.4, LogD7.4) was found to be 3.8.

With `CN(C)CCC1CCN(c2cc(C(=O)NC[C@H]3CC[C@H](CNC(=O)OC(C)(C)C)CC3)c3ccccc3n2)CC1`, the fraction unbound at 5 h was 0.0335 in data set [1] (PPB), 0.0079 in data set [3], 0.04 in data set [4] and 0.0066 in data set [6].

As for `CN(C)CCC1CCN(c2cc(C(=O)NC[C@H]3CC[C@H](CNC(=O)OCC(C)(C)C)CC3)c3ccccc3n2)CC1`, the values for the free fraction (fraction unbound) at 5 h in data set [1] (PPB), in data set [3] and in data set [4] were 0.0139, 0.0039 and 0.0133, respectively.

The compound `O=C(Nc1ccc(N2CCNCC2)cc1)c1ccc(-c2ccc(Cl)cc2)o1` yielded a hepatocyte CLint in data set [7] below 3 µL/min/1e6 cells. Also, the fraction unbound at 5 h in data set [1] (PPB) was 0.0268; in data set [3], 0.03; in [4] it was 0.0055. The compound further gave a logD in [2] (pH 7.4, LogD7.4) of 2.4.

`Cc1nccc(-c2ccc(-c3nc4ccncc4c(O)c3C#N)cc2)c1Cl`: the results for the fraction unbound at 5 h in data set [1] (PPB), in [3] and in data set [4] were 0.0014, 0.0088 and 0.0014, respectively. In addition, the logD in [2] (pH 7.4, LogD7.4) worked out at 2.

Turning to `O=C(c1c2ccccc2cc2ccccc12)N1CCC(N2CCC[C@@H](C(=O)N3CCOCC3)C2)CC1`, the fraction unbound at 5 h in data set [1] (PPB) was 0.0661; in data set [3] it was 0.266; in data set [4] it was 0.266; in [6] it was 0.289.

`CO[C@H]1CC[C@]2(CC1)Cc1ccc(OCC(C)C)cc1C21N=C(C)C(N)=N1` (stereo partly drawn) registered a hepatocyte CLint in data set [7] of 7.24 µL/min/1e6 cells. For the same compound, the fraction unbound at 5 h is 0.201 in data set [1] (PPB) and 0.349 in data set [3]. The same compound displayed a logD in data set [2] (pH 7.4, LogD7.4) of 3.4.

Regarding `CO[C@H]1CC[C@]2(CC1)Cc1ccc(-c3cncc(Br)c3)cc1C21N=C(C)C(N)=N1` (stereo partly drawn), the fraction unbound at 5 h is 0.139 in [1] (PPB), 0.0209 in data set [3] and 0.0661 in [4]. The logD in data set [2] (pH 7.4, LogD7.4) worked out at 3.4.

Consider `Cc1cccc(-c2ccc(CNC(=O)CCCc3ccc4cccnc4n3)cc2)c1`, for which the hepatocyte CLint in data set [7] amounted to 60.3 µL/min/1e6 cells. Also, the fraction unbound at 5 h in data set [3] was 0.0022.

Compound `FC(F)(F)Oc1ccc(-c2nnc(CCCCc3ccc4cccnc4n3)o2)cc1Cl` showed a hepatocyte CLint in [7] of 24.6 µL/min/1e6 cells. The figures for the fraction unbound at 5 h in data set [1] (PPB) and in [3] were 0.0008 and 0.0043, respectively.

Turning to `O=C1COc2nccc(-c3ccccc3F)c2CN1Cc1cc(C(F)(F)F)cc(C(F)(F)F)c1`, the fraction unbound at 5 h was 0.0063 in data set [1] (PPB), 0.0095 in [3] and 0.0081 in data set [4].

On to `CCOC(=O)C1=C(C)NC(C)=C(C(C)=O)[C@H]1c1cccc2c(=O)cc(C)oc12`, for which the hepatocyte CLint was found to be 45.7 µL/min/1e6 cells in data set [7] and 105 µL/min/1e6 cells in data set [5]. The fraction unbound at 5 h in [1] (PPB) was 0.148; in [3] it was 0.0016; in [4] it was 0.0008. The logD in data set [2] (pH 7.4, LogD7.4) amounted to 2.63. Further, in data set [8] (liver microsomes), the microsomal CLint was above 150 µL/min/mg. The compound also displayed a pKa in [9] of 2.22.

`CC(C)C[C@H](CO)Nc1nc(S[C@@H](C)c2ccccc2)nc2[nH]c(=O)sc12`: the fraction unbound at 5 h was 0.001 in [1] (PPB), 0.0009 in data set [3] and 0.0019 in data set [6]. Moreover, the logD in data set [2] (pH 7.4, LogD7.4) worked out at 4.3.

Turning to `Cc1cc(N2CCC[C@@H]2C(=O)NCCc2ccc3c(c2)OCO3)nc(-n2ccnc2)n1`, the fraction unbound at 5 h in data set [1] (PPB) was 0.19; in [3], 0.154; in data set [4], 0.22. The logD in data set [2] (pH 7.4, LogD7.4) amounted to 2.5. This compound registered a microsomal CLint in [8] (liver microsomes) above 150 µL/min/mg.

Regarding `COC(=O)N[C@@H](C)C#Cc1cnc(Oc2ccc(OC(C)C)cc2)s1`, the fraction unbound at 5 h in data set [1] (PPB) was 0.0034; in data set [3] it was 0.0099; in data set [4], 0.0051.

As for `CC(C)Oc1cc(Nc2nc(N[C@@H](C)c3ncc(F)cn3)ncc2Cl)n[nH]1`, the fraction unbound at 5 h in data set [1] (PPB) is 0.112; in [3], 0.0736; in [6] it was 0.204.

As for `C[C@H](Nc1ncc(Cl)c(Nc2cc(C3CC3)[nH]n2)n1)c1ccc(F)cn1`, the fraction unbound at 5 h in [1] (PPB) was 0.0358; in data set [3] it was 0.0358; in data set [4], 0.009; in [6], 0.11.

For `O=C(Nc1ccc(CN2CCNCC2)cc1-c1nc2ccccc2[nH]1)c1cnc2ccccc2n1`, the fraction unbound at 5 h was 0.0009 in data set [1] (PPB), 0.0033 in [3] and 0.0801 in [4].

`c1ccc2[nH]c(CCc3nc4ccccc4[nH]3)nc2c1`: the fraction unbound at 5 h is 0.16 in [1] (PPB), 0.19 in data set [3] and 0.201 in data set [4]. Besides, the logD in data set [2] (pH 7.4, LogD7.4) turned out to be 3.3.

As to `N#Cc1c(O)c2c(-c3ccc(-c4ccccc4O)cc3)csc2[nH]c1=O`, the microsomal CLint in [8] (liver microsomes) is below 3 µL/min/mg. Moreover, the fraction unbound at 5 h in data set [3] was 0.0063. In addition, in data set [5], the hepatocyte CLint is 52.5 µL/min/1e6 cells.

`O=C(CN1CCN(Cc2ccn(-c3ccc(C(F)(F)F)cn3)c2)CC1)NC(c1ccc(F)cc1)c1ccc(F)cc1`: the fraction unbound at 5 h was 0.0014 in data set [1] (PPB), 0.0013 in [3], 0.0011 in data set [4] and 0.0006 in data set [6].

In turn, `CC(C)[C@H](C(=O)Nc1nccs1)c1ccc(Cl)cc1` showed a hepatocyte CLint in [7] of 12 µL/min/1e6 cells. Further, the fraction unbound at 5 h in [1] (PPB) is 0.0074; in data set [3], 0.0111; in data set [4], 0.0106.

In the case of `CS(=O)(=O)Nc1ccc2[nH]c(Cc3ccc(Oc4ccccc4)cc3)nc2c1`, the fraction unbound at 5 h is 0.0055 in data set [1] (PPB), 0.0059 in data set [3] and 0.0061 in data set [4].

As for `COc1ccc(Cl)cc1C1(F)C(=O)Nc2cc(C(F)(F)F)ccc21` (stereo not drawn), the fraction unbound at 5 h was 0.0017 in data set [1] (PPB), 0.0019 in data set [3] and 0.0015 in [4].

Take `CC(C)NC[C@@H](O)COc1cccc2ccccc12` [DEXPROPRANOLOL]: the fraction unbound at 5 h in data set [1] was 0.176; in [3], 0.179; in data set [4], 0.179.

On to `CCOc1ncc(C)c2c1[C@H](c1ccc(C#N)cc1OC)C(C(N)=O)=C(C)N2` [FINERENONE], for which the fraction unbound at 5 h is 0.0752 in [1] (PPB), 0.0007 in [3] and 0.0007 in data set [4]. The same compound had a logD in data set [2] (pH 7.4, LogD7.4) of 2.51. The microsomal CLint in [8] (microsomes) was determined as 97.7 µL/min/mg. In [5], this compound came in with a hepatocyte CLint of 26.9 µL/min/1e6 cells.

On to `Cc1cnc(C(=O)c2ncnc3[nH]ccc23)c(NS(=O)(=O)c2ccc(Cl)c(C(F)(F)F)c2)c1` [ILACIRNON], for which the fraction unbound at 5 h in data set [1] (PPB) is 0.0009; in [3], 0.0069; in data set [4], 0.0021.

Turning to `O=C1N(c2ccccc2)c2ccccc2C1(Cc1ccncc1)Cc1ccncc1` [LINOPIRDINE], the fraction unbound at 5 h was 0.004 in data set [1] (PPB), 0.179 in data set [3] and 0.101 in data set [4].

Regarding `CN(C)C(=O)C(CCN1CCC(O)(c2ccc(Cl)cc2)CC1)(c1ccccc1)c1ccccc1` [LOPERAMIDE], the fraction unbound at 5 h in [1] is 0.0736; in [3] it was 0.0358; in data set [4] it was 0.0544. Besides, in data set [2] (pH 7.4), the logD worked out at 3.47. Moreover, the pKa in [9] amounted to 9.14.

Take `C[C@@]1(c2cc(-c3cncnc3)c(F)cc2F)CCSC(N)=N1` [LY-2811376]: the values for the fraction unbound at 5 h in [1] (PPB), in data set [3] and in data set [6] were 0.46, 0.671 and 0.629, respectively. The compound also came in with a logD in [2] (pH 7.4, LogD7.4) of 0.8.

Consider `CC(C)(F)C[C@H](N[C@@H](c1ccc(-c2ccc(S(C)(=O)=O)cc2)cc1)C(F)(F)F)C(=O)NC1(C#N)CC1` [ODANACATIB], for which the values for the fraction unbound at 5 h in data set [1] (PPB), in data set [3] and in data set [4] were 0.0606, 0.016 and 0.0366, respectively. Further, the logD in data set [2] (pH 7.4, LogD7.4) was found to be 2.9.

`C[C@@H]1CN(C(=O)[C@@H]2CN(C(C)(C)C)C[C@H]2c2ccc(F)cc2F)C[C@H](C)[C@@]1(O)c1ccccc1` [PF-00446687] yielded a hepatocyte CLint in [7] of 25.1 µL/min/1e6 cells. In addition, the fraction unbound at 5 h is 0.232 in data set [1] (PPB), 0.262 in [3] and 0.19 in [4].

On to `CC1(CCCc2cc(=O)oc3[nH]c(=O)[nH]c(=O)c23)CC1` [SCH-900271], for which the hepatocyte CLint was below 3 µL/min/1e6 cells in [7] and 42.7 µL/min/1e6 cells in data set [5]. Further, the figures for the fraction unbound at 5 h in data set [1] (PPB), in data set [3] and in [4] were 0.0149, 0.0268 and 0.0149, respectively. Moreover, the microsomal CLint in data set [8] (liver microsomes) was below 3 µL/min/mg.

Consider `N[C@@H](CC(=O)N1CCn2c(nnc2C(F)(F)F)C1)Cc1cc(F)c(F)cc1F` [SITAGLIPTIN], for which the results for the fraction unbound at 5 h in data set [1] (PPB), in data set [3] and in [4] were 0.768, 0.711 and 0.78, respectively. This compound also returned a logD in data set [2] (pH 7.4, LogD7.4) of 0.31.

In the case of `CCc1c(C(=O)C(N)=O)c2c(OCC(=O)OC)cccc2n1Cc1ccccc1` [VARESPLADIB METHYL], the hepatocyte CLint in data set [7] stood at 50.1 µL/min/1e6 cells. Further, the fraction unbound at 5 h in data set [3] is 0.232.

For the compound `CCc1c(C(=O)C(N)=O)c2c(OCC(=O)O)cccc2n1Cc1ccccc1` [VARESPLADIB], the fraction unbound at 5 h in data set [1] was 0.124; in data set [3], 0.22; in data set [4], 0.0768; in data set [6], 0.129.
